Where a name gives a salt, the structure may show the parent alone. One block for each molecule: values may come before it. Activity calls are given as the source filed them. The calls are words filed in the database; no cut-off is given here.
Assays:
in vitro = conditions: human
Description: Cytotoxicity in human MCF7 cells assessed as maximum drug level not causing reduction in cell viability incubated for 6 days by acid red-52 staining based assay

Estrogen receptor beta [1] = target: T1, Estrogen receptor beta (Homo sapiens, UniProt Q92731)
Description: (§1) Displacement of [3H]E2 from GST-fused ERbeta-LBD (unknown origin) expressed in Escherichia coli BL21 incubated for 1 hr by liquid scintillation counting method

Estrogen receptor beta [2] = target: T1, Estrogen receptor beta; experiment: Antagonist activity at full length ERbeta (unknown origin) expressed in human HeLa cells assessed as reduction in 17-beta estradiol-induced response at 10^-5M incubated for 24 hrs by ERE-driven luciferase reporter gene assay relative to untreated control; assay type: cell-based
[3] = target: T2, Estrogen-related receptor gamma (Homo sapiens, UniProt P62508)
T2 sequence (P62508 whole entry): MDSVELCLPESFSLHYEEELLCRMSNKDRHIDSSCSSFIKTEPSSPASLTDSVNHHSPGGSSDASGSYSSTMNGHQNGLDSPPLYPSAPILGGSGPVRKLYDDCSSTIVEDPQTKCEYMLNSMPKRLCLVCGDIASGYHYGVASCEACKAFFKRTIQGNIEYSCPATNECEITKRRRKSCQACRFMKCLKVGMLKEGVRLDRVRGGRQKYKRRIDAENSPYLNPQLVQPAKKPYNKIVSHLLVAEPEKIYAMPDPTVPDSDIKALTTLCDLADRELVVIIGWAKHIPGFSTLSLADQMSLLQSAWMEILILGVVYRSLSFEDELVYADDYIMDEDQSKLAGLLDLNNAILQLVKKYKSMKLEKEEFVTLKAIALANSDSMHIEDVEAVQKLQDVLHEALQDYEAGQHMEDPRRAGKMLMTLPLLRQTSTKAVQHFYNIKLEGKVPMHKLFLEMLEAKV
Description: Binding affinity to human ERRgamma

[4] = target: T3, Estrogen receptor (Homo sapiens) (UniProt P03372); experiment: Antagonist activity at full length ERalpha (unknown origin) expressed in human HeLa cells up to 10 uM incubated for 24 hrs by ERE-driven luciferase reporter gene assay; assay type: cell-based
T3 sequence (whole entry): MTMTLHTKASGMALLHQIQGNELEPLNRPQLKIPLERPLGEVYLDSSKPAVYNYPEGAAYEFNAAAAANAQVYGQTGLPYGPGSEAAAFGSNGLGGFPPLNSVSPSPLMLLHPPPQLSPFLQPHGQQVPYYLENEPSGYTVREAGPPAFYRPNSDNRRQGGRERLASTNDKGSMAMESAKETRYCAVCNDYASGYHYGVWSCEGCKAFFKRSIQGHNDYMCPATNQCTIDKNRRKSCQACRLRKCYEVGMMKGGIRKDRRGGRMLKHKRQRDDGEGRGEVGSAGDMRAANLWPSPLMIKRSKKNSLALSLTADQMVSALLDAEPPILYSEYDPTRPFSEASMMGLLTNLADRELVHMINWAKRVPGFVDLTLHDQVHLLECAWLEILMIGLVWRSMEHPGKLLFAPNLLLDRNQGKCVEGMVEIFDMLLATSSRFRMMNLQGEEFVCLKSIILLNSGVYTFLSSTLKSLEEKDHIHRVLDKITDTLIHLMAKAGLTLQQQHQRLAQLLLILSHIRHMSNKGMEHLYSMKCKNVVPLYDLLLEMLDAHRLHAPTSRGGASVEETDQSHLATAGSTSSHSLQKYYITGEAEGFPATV

Estrogen receptor beta [5] = target: T1, Estrogen receptor beta; experiment: Antagonist activity at full length ERbeta (unknown origin) expressed in human HeLa cells incubated for 24 hrs by ERE-driven luciferase reporter gene assay
Estrogen receptor [6] = target: T4, Estrogen receptor (Homo sapiens, UniProt P03372)
T4 sequence (P03372 whole entry): T3 sequence (whole entry)
Description: Agonist activity at full length ERalpha (unknown origin) expressed in human HeLa cells incubated for 24 hrs by ERE-driven luciferase reporter gene assay

Estrogen receptor [7] = target: T4, Estrogen receptor; remark: listed apart in the source
Description: Displacement of [3H]E2 from GST-fused ERalpha-LBD (unknown origin) expressed in Escherichia coli BL21 incubated for 1 hr by liquid scintillation counting method

Estrogen receptor beta [8] = target: T1, Estrogen receptor beta; remark: listed apart in the source
Description: as §1

MCF7 = experiment: cells; assay type: functional, cell-based; conditions: Homo sapiens, MCF7, 144 h
Description: Inhibition of 17-beta estradiol-induced cell proliferation in human MCF7 cells incubated for 6 days by acid red-52 staining based assay

Estrogen receptor [9] = target: T4, Estrogen receptor; remark: listed apart in the source
Description: Antagonist activity at full length ERalpha (unknown origin) expressed in human HeLa cells incubated for 24 hrs by ERE-driven luciferase reporter gene assay

T1 sequence (Q92731 whole entry): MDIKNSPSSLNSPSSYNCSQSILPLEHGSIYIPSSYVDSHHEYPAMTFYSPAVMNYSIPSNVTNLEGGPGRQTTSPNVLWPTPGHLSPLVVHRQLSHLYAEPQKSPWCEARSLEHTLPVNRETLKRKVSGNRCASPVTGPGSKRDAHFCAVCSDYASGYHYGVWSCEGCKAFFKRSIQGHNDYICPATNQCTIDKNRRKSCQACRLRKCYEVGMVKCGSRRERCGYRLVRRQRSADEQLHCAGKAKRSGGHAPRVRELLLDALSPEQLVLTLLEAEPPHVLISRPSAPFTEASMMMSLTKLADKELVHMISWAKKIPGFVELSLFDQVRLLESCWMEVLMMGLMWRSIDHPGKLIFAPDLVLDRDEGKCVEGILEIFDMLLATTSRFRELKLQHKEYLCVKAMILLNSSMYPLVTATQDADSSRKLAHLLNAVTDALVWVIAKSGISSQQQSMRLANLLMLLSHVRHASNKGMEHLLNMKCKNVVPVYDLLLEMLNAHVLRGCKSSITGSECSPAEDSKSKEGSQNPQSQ

- MNTC at 144 h (in vitro; MCF7 cells): > 1 µM
Structure (SMILES): COc1ccc2c(-c3ccccc3)c3cc4ccccc4cc3nc2c1

Structure (SMILES): Cl.Oc1ccc2cc3nc4ccccc4c(-c4ccccc4)c3cc2c1
- IC50 (Estrogen receptor beta [1]): 0.154 µM
- fold change (FC) (Estrogen receptor beta [2]): 6
- IC50 [3]: Not Active
- MNTC at 144 h (in vitro; MCF7 cells): > 10 µM
- inhibition [4]: inactive
- inhibition (Estrogen receptor beta [5]): Active
- EC50 (Estrogen receptor [6]): 1.44 µM
- IC50 (Estrogen receptor [7]): 0.169 µM

- MNTC at 144 h (in vitro; MCF7 cells): > 100 µM
Structure (SMILES): N#Cc1c2ccccc2cc2c(-c3ccccc3)c3ccccc3nc12

Structure (SMILES): Cl.FC(F)(F)c1cccc2c(-c3ccccc3)c3cc4ccccc4cc3nc12
- IC50 (Estrogen receptor beta [8]): Not Active
- IC50 [3]: Not Active
- MNTC at 144 h (in vitro; MCF7 cells): > 10 µM
- IC50 (MCF7): 3.98 µM
- IC50 (Estrogen receptor [7]): 2.65 µM

- MNTC at 144 h (in vitro; MCF7 cells): > 1 µM
Structure (SMILES): FC(F)(F)c1ccc(-c2c3ccc(C(F)(F)F)cc3nc3cc4ccc(C(F)(F)F)cc4cc23)cc1

Structure (SMILES): Cl.Oc1cccc2c(-c3ccccc3)c3cc4ccccc4cc3nc12
- IC50 (Estrogen receptor beta [1]): 0.939 µM
- IC50 [3]: Not Active
- MNTC at 144 h (in vitro; MCF7 cells): > 10 µM
- inhibition [4]: inactive
- EC50 (Estrogen receptor [6]): 1.33 µM
- IC50 (Estrogen receptor [7]): 1.08 µM

Structure (SMILES): c1ccc2nc3ccccc3cc2c1
- MNTC at 144 h (in vitro; MCF7 cells): > 10 µM

Structure (SMILES): Cl.Clc1c2ccccc2cc2c(-c3ccccc3)c3ccccc3nc12
- IC50 (Estrogen receptor beta [1]): 2.52 µM
- IC50 [3]: Not Active
- MNTC at 144 h (in vitro; MCF7 cells): > 10 µM
- IC50 (MCF7): 9.07 µM
- IC50 (Estrogen receptor [7]): 1.68 µM

- MNTC at 144 h (in vitro; MCF7 cells): > 10 µM
Structure (SMILES): COc1ccc2cc3nc4ccccc4c(-c4ccccc4)c3cc2c1

Structure (SMILES): Cl.Clc1ccc2c(-c3ccccc3)c3cc4ccccc4cc3nc2c1
- IC50 (Estrogen receptor beta [1]): 1.98 µM
- IC50 [3]: Not Active
- MNTC at 144 h (in vitro; MCF7 cells): > 100 µM
- IC50 (MCF7): 19.6 µM
- IC50 (Estrogen receptor [7]): 1.65 µM

- MNTC at 144 h (in vitro; MCF7 cells): > 10 µM
Structure (SMILES): FC(F)(F)c1ccc2nc3cc4ccccc4cc3c(-c3ccccc3)c2c1

Structure (SMILES): Cl.Oc1ccc2c(-c3ccccc3)c3cc4ccccc4cc3nc2c1
- IC50 (Estrogen receptor beta [1]): 0.306 µM
- IC50 [3]: Not Active
- MNTC at 144 h (in vitro; MCF7 cells): > 1 µM
- inhibition [4]: inactive
- inhibition (Estrogen receptor beta [5]): Active
- EC50 (Estrogen receptor [6]): 7.4 µM
- IC50 (Estrogen receptor [7]): 0.294 µM

Structure (SMILES): FC(F)(F)c1ccc(-c2c3ccccc3nc3cc4ccc(C(F)(F)F)cc4cc23)cc1
- MNTC at 144 h (in vitro; MCF7 cells): > 10 µM
- IC50 (MCF7): 9.24 µM

Structure (SMILES): Cl.c1ccc(-c2c3ccccc3nc3cc4ccccc4cc23)cc1
- IC50 (Estrogen receptor [9]): 9.39 µM
- IC50 (Estrogen receptor beta [1]): 1.69 µM
- IC50 [3]: Not Active
- MNTC at 144 h (in vitro; MCF7 cells): > 10 µM
- IC50 (MCF7): 4.95 µM
- IC50 (Estrogen receptor [7]): 0.915 µM

Structure (SMILES): CC/C(=C(\c1ccccc1)c1ccc(OCCN(C)C)cc1)c1ccccc1 [TAMOXIFEN CITRATE]
- MNTC at 144 h (in vitro; mcf7): > 10 µM

Structure (SMILES): Cl.FC(F)(F)c1ccc2cc3nc4ccccc4c(-c4ccccc4)c3cc2c1
- IC50 (Estrogen receptor [9]): 5.34 µM
- IC50 (Estrogen receptor beta [8]): Not Active
- IC50 [3]: Not Active
- MNTC at 144 h (in vitro; MCF7 cells): > 10 µM
- IC50 (MCF7): 9.24 µM
- IC50 (Estrogen receptor [7]): 3.51 µM

- MNTC at 144 h (in vitro; MCF7 cells): > 10 µM
Structure (SMILES): COc1cccc2c(-c3ccccc3)c3cc4ccccc4cc3nc12

Structure (SMILES): c1ccc(-c2c3ccccc3nc3nc4ccccc4cc23)cc1
- IC50 (MCF7): 0.951 µM

- MNTC at 144 h (in vitro; MCF7 cells): > 10 µM
Structure (SMILES): COc1ccc2c(-c3ccc(C(F)(F)F)cc3)c3cc4cc(C(F)(F)F)ccc4cc3nc2c1

- MNTC at 144 h (in vitro; MCF7 cells): > 100 µM
Structure (SMILES): c1ccc(-c2c3ccccc3nc3ccccc23)cc1

From ChEMBL document CHEMBL4043216, “Design and synthesis of benzoacridines as estrogenic and anti-estrogenic agents” (Bioorg Med Chem, 2017)
